Data reported in patent US20230357271A1, “MACROCYCLIC COMPOUND” (Asahi Kasei Pharma Corporation, priority 2020, published 2023).
Read-outs that look alike come from different tables or passages of the source.

Legend:
[1] = from CC(C)(C)OC(=O)N1CC[C@H](Nc2cnc3ccc(Br)c(O)c3n2)C[C@H]1C(=O)NCCCO, ether bond, 14-membered ring, PPh3/DTBAD, THF, 5.0 mM, 25.0 °C
[2] = from CC(C)(C)OC(=O)N1CC[C@H](Nc2cnc3ccc(Br)c(O)c3n2)C[C@H]1C(=O)NCCCO, ether bond, PPh3 / di-tert-butyl azodicarboxylate, tetrahydrofuran, 25.0 °C

Q: With `CC(C)(C)OC(=O)N1CC[C@H]2C[C@H]1C(=O)NCCCOc1c(Br)ccc3ncc(nc13)N2` as the molecule, how does the ring closure, isolated yield ([1]; 2.0 h) read?
A: The ring closure, isolated yield was 70%.

Q: And the ring closure, isolated yield ([1]; 12.0 h)?
A: Its ring closure, isolated yield is 61%.

Q: What about the ring closure, yield of all isomers ([2]; 4.91 mM, 12.0 h) of the same molecule?
A: Its ring closure, yield of all isomers is 61%.

Q: What about the ring closure, yield of all isomers ([2]; 4.92 mM, 2.0 h) of the same molecule?
A: The ring closure, yield of all isomers was 70%.
